Source: patent US11464802B2, “3-substituted piperidine compounds for Cbl-b inhibition, and use thereof” (Nurix Therapeutics, Inc., priority 2019, dated 2022)

Experiments:
Cbl-b [1] = target: T1, Cbl-b (Homo sapiens (Human), UniProt Q13191); assay: Cbl-b displacement assay (Cbl-b inhibition assay), TR-FRET probe displacement, Biological Example 1; assay type: binding; conditions: 0.5 nM Cbl-b final concentration (High); read-out: Cbl-b activity IC50 (High)
In short: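 N-terminally Avitagged, biotinylated truncated Cbl-b (0.5 nM "High" or 0.125 nM "Low", final) pre-incubated 1 h at room temperature with compound (1% DMSO) in HEPES pH 7.5 buffer. Then 150 nM BODIPY FL probe (~EC40) plus 2 nM streptavidin-terbium for 1 h; TR-FRET read at 520/620 nm.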

Cbl-b [2] = target: T1, Cbl-b; assay: Cbl-b displacement assay (Cbl-b inhibition assay), Biological Example 8; assay type: binding; conditions: 0.125 nM Cbl-b final concentration (Low); Table 8-1; read-out: Cbl-b IC50 (Low)
In short: (§1)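 Biotinylated Avitag-Cbl-b (residues 36-427) at 0.5 nM ("High") or 0.125 nM ("Low") final was preincubated 1 h at room temperature with compound (1% DMSO) in 20 mM HEPES pH 7.5, 150 mM NaCl, 0.01% Triton X-100, 0.01% BSA, 0.5 mM TCEP. Then 150 nM BODIPY FL inhibitor probe (~EC40) plus 2 nM streptavidin-terbium, 1 h; TR-FRET 520/620 read, IC50 derived.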

[3] = test system: primary human total T-cells; assay: Primary human total T-cell activation: IL-2 secretion, Biological Example 9; assay type: cell-based; conditions: 48 hours, fold change over baseline; for fold induction at 1 µM: inhibitor 1 μM
[4] = test system: primary human total T-cells; assay: Primary human total T-cell activation: CD25 surface staining, Biological Example 9; assay type: cell-based; conditions: 48 hours, fold change over baseline; for fold induction at 1 µM: inhibitor 1 μM
Cbl-b [5] = target: T1, Cbl-b; assay: Cbl-b displacement assay (Cbl-b inhibition assay), Biological Example 12; assay type: binding; conditions: 0.125 nM Cbl-b final concentration (Low); Table 12-1; read-out: Cbl-b IC50 (Low)
In short: as §1

[6] = test system: primary human total T-cells; assay: Primary human total T-cell activation: IL-2 secretion, Biological Example 13; assay type: cell-based; conditions: 48 hours, fold change over baseline; for fold induction at 1 µM: inhibitor 1 μM
[7] = test system: primary human total T-cells; assay: Primary human total T-cell activation: CD25 surface staining, Biological Example 13; assay type: cell-based; conditions: 48 hours, fold change over baseline; for fold induction at 1 µM: inhibitor 1 μM
TC-1 cells = assay: Compound 8 with HPV16 vaccine in TC-1 syngeneic mouse model, Biological Example 16; assay type: in vivo; conditions: TC-1 tumor-bearing mice
Description: Mice were implanted with 50,000 TC-1 cells/mouse subcutaneously into the right flank (at Day Zero (D0)). Thirteen days later (D13), when tumors measured approximately 50-100 mm^3, mice from appropriate groups (10 mice per group) were injected with HPV16 vaccine (s.c., total 2 doses, at D13 and Day 20 (D20)). […] Mice were euthanized when tumor exceeded 1500-2000 mm^3, according to IACUC guidelines. Survival was compared using GraphPad Prism using log-rank (Mantel-Cox) test. **=p<0.005 of treatment vs. Vehicle+Vaccine control group at Day 61.
TC-1 cells were derived by stable transfection of mouse lung epithelial cells with human papillomavirus strain 16 (HPV16) early proteins 6 and 7 (E6 and E7) and activated h-ras oncogene. Cells were obtained from Dr. T-C Wu (Johns Hopkins University). (Lin K Y, Guarnieri F G, Staveley-O'Carroll K F, Levitsky H I, August J T, Pardoll D M, et al. Treatment of established tumors with a novel vaccine that enhances major histocompatibility class II presentation of tumor antigen. Cancer Res 1996; 56:21-6).
The HPV16 vaccine was prepared as follows: The CTL epitope from HPV16 E749-57 (9 amino acid (aa) peptide, […], 100 μg/mouse, SEQ ID NO: 2) was mixed with synthetic T helper epitope PADRE (13 aa peptide, aK-Cha-[…]a, SEQ ID NO: 3, where “a” is D alanine and Cha is L-cyclohexylalanine, 20 ug/mouse) and with QuilA adjuvant (20 ug/mouse).

[8] = anti-CD3/anti-CD28 co-stimulation, inhibitor 0.3 μM, Table 9-1
[9] = anti-CD3 alone, inhibitor 3 μM, Table 9-1
[10] = anti-CD3/anti-CD28 co-stimulation, inhibitor 0.3 μM, Table 13-1
[11] = anti-CD3 alone, inhibitor 3 μM, Table 13-1

T1 sequence (Q13191 36-427): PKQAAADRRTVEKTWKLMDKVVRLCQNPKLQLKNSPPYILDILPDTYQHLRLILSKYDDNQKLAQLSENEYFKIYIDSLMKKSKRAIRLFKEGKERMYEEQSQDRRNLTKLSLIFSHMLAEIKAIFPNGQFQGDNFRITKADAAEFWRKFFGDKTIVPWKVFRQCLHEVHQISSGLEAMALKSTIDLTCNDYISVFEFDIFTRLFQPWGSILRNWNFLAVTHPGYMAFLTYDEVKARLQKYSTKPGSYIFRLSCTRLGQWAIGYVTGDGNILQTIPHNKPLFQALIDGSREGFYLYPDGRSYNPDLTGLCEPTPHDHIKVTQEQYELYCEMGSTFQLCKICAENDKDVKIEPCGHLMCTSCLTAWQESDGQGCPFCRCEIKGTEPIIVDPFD

With `C[C@@H]1CN(Cc2cc3c(c(C(F)(F)F)c2)CN(c2cccc(C4(Cc5nncn5C)COC4)c2)C3=O)CCC1(F)F` [Compound 8, (R)-6-((4,4-difluoro-3-methylpiperidin-1-yl)methyl)-2-(3-(3-((4-methyl-4H-1,2,4-triazol-3-yl)methyl)oxetan-3-yl)phenyl)-4-(trifluoromethyl)isoindolin-1-one] the IC50 (Cbl-b [1]) was 5.1 to 100 nM, the IC50 (Cbl-b [2]) was < 1 nM and the fold induction at 0.3 µM [3, 8] was > 15. The fold induction at 1 µM ([3]; anti-CD3/anti-CD28 co-stimulation, Table 9-1, read-out: IL-2 secretion CD3/CD28 1 μM) was > 15, the fold induction at 1 µM ([3]; anti-CD3 alone, Table 9-1, read-out: IL-2 secretion CD3 1 μM) was > 0.66 and the fold induction at 3 µM [3, 9] was > 0.66. The fold induction at 0.3 µM [4, 8] was > 1.39, the fold induction at 1 µM ([4]; anti-CD3/anti-CD28 co-stimulation, Table 9-1, read-out: CD25 staining CD3/CD28 1 μM) was > 1.39 and the fold induction at 1 µM ([4]; anti-CD3 alone, Table 9-1, read-out: CD25 staining CD3 1 μM) was > 1.14. For the same compound, the fold induction at 3 µM [4, 9] was > 1.14, the IC50 (Cbl-b [5]) was < 1 nM and the fold induction at 0.3 µM [6, 10] was > 15. The fold induction at 1 µM ([6]; anti-CD3/anti-CD28 co-stimulation, Table 13-1, read-out: IL-2 secretion CD3/CD28 1 μM) was > 15, the fold induction at 1 µM ([6]; anti-CD3 alone, Table 13-1, read-out: IL-2 secretion CD3 1 μM) was > 0.66 and the fold induction at 3 µM [6, 11] was > 0.66. For the same compound, the fold induction at 0.3 µM [7, 10] was > 1.39, the fold induction at 1 µM ([7]; anti-CD3/anti-CD28 co-stimulation, Table 13-1, read-out: CD25 staining CD3/CD28 1 μM) was > 1.39 and the fold induction at 1 µM ([7]; anti-CD3 alone, Table 13-1, read-out: CD25 staining CD3 1 μM) was > 1.14. For the same compound, the fold induction at 3 µM [7, 11] was > 1.14, the tumor growth (TC-1 cells; Compound 8 orally D13 to D35, HPV16 vaccine s.c. D13 and D20) was “significant slowdown of tumor progression” and the survival (TC-1 cells; Compound 8 orally D13 to D35 with HPV16 vaccine s.c. D13 and D20, vs. Vehicle+Vaccine) was “prolonged survival”.
